In the NIST ThermoML archive (doi:10.1021/acs.jced.7b00297):
Numbers after ± are expanded uncertainties.

Assay: mn = molality of the nth substance listed, in mol/kg
Details: 84.5 kPa, Liquid; for speed of sound: Single path-length method; for mass density: Vibrating tube method

CCCCn1cc[n+](C)c1.O=S(=O)([O-])C(F)(F)F [1-butyl-3-methylimidazolium trifluoromethanesulfonate] + O
Details	mass density, 288.15 K [kg/m3]	mass density, 298.15 K [kg/m3]	mass density, 308.15 K [kg/m3]	mass density, 318.15 K [kg/m3]	speed of sound, 288.15 K [m/s]	speed of sound, 298.15 K [m/s]	speed of sound, 308.15 K [m/s]	speed of sound, 318.15 K [m/s]
m1 = 0.0164	1000.27 ± 4	998.176 ± 4	995.134 ± 4	991.289 ± 4	1468.7 ± 1	1498.5 ± 1	1521.1 ± 1	1537.4 ± 1
m1 = 0.0259	1000.93 ± 4	998.823 ± 4	995.765 ± 4	991.906 ± 4	1469.8 ± 1	1499.4 ± 1	1521.8 ± 1	1537.9 ± 1
m1 = 0.042	1002.06 ± 4	999.922 ± 4	996.836 ± 4	992.952 ± 4	1471.8 ± 1	1501 ± 1	1523 ± 1	1538.8 ± 1
m1 = 0.0699	1003.99 ± 4	1001.79 ± 4	998.662 ± 4	994.732 ± 4	1475 ± 1	1503.5 ± 1	1524.8 ± 1	1540 ± 1
m1 = 0.1072	1006.54 ± 4	1004.28 ± 4	1001.08 ± 4	997.093 ± 4	1479.2 ± 1	1506.6 ± 1	1527.2 ± 1	1541.7 ± 1
m1 = 0.1455	1009.12 ± 4	1006.78 ± 4	1003.52 ± 4	999.47 ± 4	1483.8 ± 1	1510.2 ± 1	1529.8 ± 1	1543.6 ± 1
m1 = 0.3021	1019.31 ± 4.1	1016.66 ± 4.1	1013.11 ± 4.1	1008.81 ± 4	1499.6 ± 1.1	1522.1 ± 1.1	1538.4 ± 1.1	1549.2 ± 1.1
m1 = 0.4645	1029.21 ± 4.1	1026.22 ± 4.1	1022.39 ± 4.1	1017.83 ± 4.1	1513.4 ± 1.1	1532.3 ± 1.1	1545.4 ± 1.1	1553.4 ± 1.1
m1 = 0.6651	1040.6 ± 4.2	1037.21 ± 4.2	1033.03 ± 4.1	1028.16 ± 4.1	1526.7 ± 1.1	1541.5 ± 1.1	1551.1 ± 1.1	1556.2 ± 1.1
m1 = 0.8671	1051.21 ± 4.2	1047.44 ± 4.2	1042.94 ± 4.2	1037.8 ± 4.2	1535.6 ± 1.1	1546.9 ± 1.1	1553.8 ± 1.1	1556.5 ± 1.1
